From US20230014907A1, “INHIBITORS OF APOL1 AND METHODS OF USING SAME” (Vertex Pharmaceuticals Incorporated, priority 2020, published 2023)

Target: T1, G1 APOL1 (Homo sapiens, UniProt O14791, I384M/S342G)
T1 construct: expressed in transfected cells
T1 sequence (O14791 28-398 S342G/I384M): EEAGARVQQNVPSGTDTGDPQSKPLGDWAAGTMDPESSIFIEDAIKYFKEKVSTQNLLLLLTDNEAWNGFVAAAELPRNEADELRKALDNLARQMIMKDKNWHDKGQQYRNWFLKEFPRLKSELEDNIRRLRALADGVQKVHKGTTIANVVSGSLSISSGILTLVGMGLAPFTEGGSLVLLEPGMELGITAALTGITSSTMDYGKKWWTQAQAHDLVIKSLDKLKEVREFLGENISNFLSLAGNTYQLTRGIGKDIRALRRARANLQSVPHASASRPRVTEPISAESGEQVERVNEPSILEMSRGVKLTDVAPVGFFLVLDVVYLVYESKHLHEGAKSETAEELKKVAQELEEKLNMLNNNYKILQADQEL
Assay: Acute APOL1 Thallium Assay with Inducible Stable Clones of HEK 293 Cells
Type: cell-based
Conditions: HEK 293 inducible stable clones, G1 APOL1; read-out: Thallium Assay (IC50)
How it was run: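 HEK293 T-Rex cells with a stable tetracycline-inducible G1 APOL1 construct (clone DC3.25) were induced with tetracycline at plating, 26000 cells per well, then incubated at 37° C. They were loaded with an AM-ester thallium-sensitive dye and stimulated with Tl+. The fluorescence rise measured Tl+ influx through APOL1 pores.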

Structure (SMILES)	IC50 [nM]
CC(C)(C#N)C(=O)NCCc1c(-c2ccc(F)cc2)[nH]c2c(F)cc(F)cc12 [Compound 411]	250 to 1000
CC(O)(CO)CNC(=O)CCCc1c(-c2ccc(F)cc2)[nH]c2c(F)cc(F)cc12 (centres unmarked) [Compound 250]	> 1000
N#Cc1ccc(-c2[nH]c3c(F)cc(F)cc3c2/C=C/C(=O)N[C@H]2CCNC2=O)cc1 [Compound 522, (E)-3-[2-(4-cyanophenyl)-5,7-difluoro-1H-indol-3-yl]-N-[(3S)-2-oxopyrrolidin-3-yl]prop-2-enamide]	> 1000
CC[C@@H](CO)NC(=O)OCCc1c(-c2ccc(F)cc2)[nH]c2c(F)cc(F)cc12 [Compound 446]	< 250
CC1(C(=O)NCCc2c(-c3ccc(F)cc3)[nH]c3c(F)cc(F)cc23)COC1 [Compound 410]	250 to 1000
O=C(NCCc1c(-c2ccc(F)cc2)[nH]c2c(F)cc(F)cc12)NC(CO)CF (centres unmarked) [Compound 259, 1-[2-[5,7-difluoro-2-(4-fluorophenyl)-1H-indol-3-yl]ethyl]-3-[1-(fluoromethyl)-2-hydroxy-ethyl]urea]	250 to 1000
O=C(CN1CCCC1=O)NCCc1c(-c2ccc(F)cc2)[nH]c2c(F)cc(F)cc12 [Compound 375]	> 1000
Cc1cnn(CC(=O)NCCc2c(-c3ccc(F)cc3)[nH]c3c(F)cc(F)cc23)c1 [Compound 379]	> 1000
O=C(NCC(O)CO)OCCc1c(-c2ccc(F)cc2)[nH]c2c(F)cc(F)cc12 (centres unmarked) [Compound 468]	250 to 1000
C[C@H](NC(=O)OC(C)(C)C)C(=O)NCCc1c(-c2ccc(F)cc2)[nH]c2c(F)cc(F)cc12 [Compound 313]	> 1000
CC(CO)CNC(=O)NCCc1c(-c2ccc(F)cc2)[nH]c2c(F)cc(F)cc12 (racemic) [Compound 280]	> 1000
CC(C)[C@@H](CO)NC(=O)OCCc1c(-c2ccc(F)cc2)[nH]c2c(F)cc(F)cc12 [Compound 459]	250 to 1000
O=C1NCC(C(=O)NCCc2c(-c3ccc(F)cc3)[nH]c3c(F)cc(F)cc23)O1 (centres unmarked) [Compound 337]	> 1000
O=C(NCC1CCOC1)OCCc1c(-c2ccc(F)cc2)[nH]c2c(F)cc(F)cc12 (centres unmarked) [Compound 491]	> 1000
O=C(NCC1(O)CCC1)OCCc1c(-c2ccc(F)cc2)[nH]c2c(F)cc(F)cc12 [Compound 486]	> 1000
Cc1cc(F)c2[nH]c(-c3ccc(F)cc3)c(CCC(=O)NCC(N)=O)c2c1 [Compound 223]	> 1000
O=C(NCC(F)F)OCCc1c(-c2ccc(F)cc2)[nH]c2c(F)cc(F)cc12 [Compound 449]	< 250
O=C(CCc1c(-c2ccc(F)cc2)[nH]c2ccc(F)cc12)N[C@@H](CO)C(F)F [Compound 3]	250 to 1000
CC(C)(CF)C(=O)NCCc1c(-c2ccc(F)cc2)[nH]c2c(F)cc(F)cc12 [Compound 405]	250 to 1000
Cc1ccn(CC(=O)NCCc2c(-c3ccc(F)cc3)[nH]c3c(F)cc(F)cc23)n1 [Compound 378]	> 1000
Nc1ncc(C(=O)NCCc2c(-c3ccc(F)cc3)[nH]c3c(F)cc(F)cc23)s1 [Compound 328]	> 1000

Structure (SMILES)	IC50 [nM]
O=C(NCCc1c(-c2ccc(F)cc2)[nH]c2c(F)cc(F)cc12)c1cnccn1 [Compound 398]	> 1000
O=C(N[C@@H](CO)C(F)F)OCCc1c(-c2ccc(F)cc2)[nH]c2c(F)cc(F)cc12 [Compound 441]	< 250
CC(C)(CO)NC(=O)OCCc1c(-c2ccc(F)cc2)[nH]c2c(F)cc(F)cc12 [Compound 435]	< 250
O=C(NCCc1c(-c2ccc(F)cc2)[nH]c2c(F)cc(F)cc12)C1(O)CC1 [Compound 360]	250 to 1000
CC(C)(C)OC(=O)N[C@@H](CO)C(=O)NCCc1c(-c2ccc(F)cc2)[nH]c2c(F)cc(F)cc12 [Compound 308]	> 1000
O=C(NC[C@H](O)CO)OCCc1c(-c2ccc(F)cc2)[nH]c2c(F)cc(F)cc12 [Compound 470]	250 to 1000
Cn1cnc(CNC(=O)OCCc2c(-c3ccc(F)cc3)[nH]c3c(F)cc(F)cc23)c1 [Compound 478]	> 1000
O=C(NCCc1c(-c2ccc(F)cc2)[nH]c2c(F)cc(F)cc12)NCC1CCCOC1 (centres unmarked) [Compound 293]	> 1000
O=S(=O)(NCCc1c(-c2ccc(F)cc2)[nH]c2c(F)cc(F)cc12)C1CCOCC1 [Compound 423]	> 1000
CCOCCc1c(-c2ccc(F)cc2)[nH]c2c(F)cc(F)cc12 [Compound 503, 3-(2-ethoxyethyl)-5,7-difluoro-2-(4-fluorophenyl)-1H-indole]	> 1000
O=C(NCCc1ccncc1)NCCc1c(-c2ccc(F)cc2)[nH]c2c(F)cc(F)cc12 [Compound 288]	> 1000
O=C1CC(C(=O)NCCc2c(-c3ccc(F)cc3)[nH]c3c(F)cc(F)cc23)CO1 (centres unmarked) [Compound 383]	> 1000
Cn1cnc(C(=O)NCCc2c(-c3ccc(F)cc3)[nH]c3c(F)cc(F)cc23)c1 [Compound 389]	> 1000
O=C1CC(NC(=O)CCCc2c(-c3ccc(F)cc3)[nH]c3c(F)cc(F)cc23)CN1 (centres unmarked) [Compound 253]	> 1000
O=C(Cn1cccc1)NCCc1c(-c2ccc(F)cc2)[nH]c2c(F)cc(F)cc12 [Compound 395]	> 1000
NC(=O)CNC(=O)OCCc1c(-c2ccc(F)cc2)[nH]c2c(F)cc(F)cc12 [Compound 452]	< 250
O=C(NCc1cn(CC(F)(F)F)cn1)OCCc1c(-c2ccc(F)cc2)[nH]c2c(F)cc(F)cc12 [Compound 493]	> 1000
O=C(NCCc1c(-c2ccc(F)cc2)[nH]c2c(F)cc(F)cc12)c1cncc(F)c1 [Compound 377]	> 1000
Cc1ccnn1CCC(=O)NCCc1c(-c2ccc(F)cc2)[nH]c2c(F)cc(F)cc12 [Compound 372]	> 1000
O=C(NCCc1c(-c2ccc(F)cc2)[nH]c2c(F)cc(F)cc12)N[C@H]1CCNC1=O [Compound 277]	> 1000
CC(CO)(CO)NC(=O)OCCc1c(-c2ccc(F)cc2)[nH]c2c(F)cc(F)cc12 [Compound 434, 2-[5,7-difluoro-2-(4-fluorophenyl)-1H-indol-3-yl]ethyl N-[2-hydroxy-1-(hydroxymethyl)-1-methyl-ethyl]carbamate]	< 250

Structure (SMILES)	IC50 [nM]
O=C(NCCc1c(-c2ccc(F)cc2)[nH]c2c(F)cc(F)cc12)c1ccc[nH]1 [Compound 354]	> 1000
O=C(NCCc1c(-c2ccc(F)cc2)[nH]c2c(F)cc(F)cc12)C1(CO)CC1 [Compound 347]	< 250
O=C(CCc1c(-c2ccc(F)cc2)[nH]c2c(F)cc(F)cc12)N[C@@H](CO)C(F)F [Compound 132]	< 250
O=C(CCc1c(-c2ccc(F)cc2)[nH]c2c(F)cc(F)cc12)N[C@H]1C[C@H](O)C1 [Compound 159]	> 1000
CC(CO)C(=O)NCCc1c(-c2ccc(F)cc2)[nH]c2c(F)cc(F)cc12 (racemic) [Compound 357]	< 250
O=C(CCc1c(-c2ccc(F)cc2)[nH]c2c(F)cc(Cl)cc12)NC1(CO)CCC1 [Compound 194, 3-[5-chloro-7-fluoro-2-(4-fluorophenyl)-1H-indol-3-yl]-N-[1-(hydroxymethyl)cyclobutyl]propanamide]	250 to 1000
C[C@@H](CO)NC(=O)OCCc1c(-c2ccc(F)cc2)[nH]c2c(F)cc(F)cc12 [Compound 440]	< 250
COC(=O)/C=C/c1c(-c2ccc(C#N)cc2)[nH]c2c(F)cc(F)cc12 [Compound 521, Methyl (E)-3-[2-(4-cyanophenyl)-5,7-difluoro-1H-indol-3-yl]prop-2-enoate]	> 1000
O=C(CCc1c(-c2ccc(F)cc2)[nH]c2c(Cl)cccc12)N[C@@H](CO)C(F)F [Compound 231, 3-[7-chloro-2-(4-fluorophenyl)-1H-indol-3-yl]-N-[(1S)-2,2-difluoro-1-(hydroxymethyl)ethyl]propanamide]	< 250
CS(=O)(=O)CC(=O)NCCc1c(-c2ccc(F)cc2)[nH]c2c(F)cc(F)cc12 [Compound 382]	> 1000
CC(O)C(C)NC(=O)OCCc1c(-c2ccc(F)cc2)[nH]c2c(F)cc(F)cc12 (mixture of isomers) [Compound 453]	250 to 1000
O=C(NCCO)OCCc1c(-c2ccc(F)cc2)[nH]c2c(F)cc(F)cc12 [Compound 443]	< 250
C[C@H](CO)NC(=O)OCCc1c(-c2ccc(F)cc2)[nH]c2c(F)cc(F)cc12 [Compound 445]	< 250
Cn1ccnc1S(=O)(=O)NCCc1c(-c2ccc(F)cc2)[nH]c2c(F)cc(F)cc12 [Compound 424]	> 1000
CC(O)CCNC(=O)OCCc1c(-c2ccc(F)cc2)[nH]c2c(F)cc(F)cc12 (centres unmarked) [Compound 483]	> 1000
Cc1cc(F)c2[nH]c(-c3ccc(F)cc3)c(CCC(=O)NC[C@H](O)CO)c2c1 [Compound 226]	> 1000
O=C1N[C@@H](C(=O)NCCc2c(-c3ccc(F)cc3)[nH]c3c(F)cc(F)cc23)CO1 [Compound 306, (4R)—N-[2-[5,7-difluoro-2-(4-fluorophenyl)-1H-indol-3-yl]ethyl]-2-oxo-oxazolidine-4-carboxamide]	> 1000
O=C1C[C@@H](NC(=O)CCCc2c(-c3ccc(F)cc3)[nH]c3c(F)cc(F)cc23)C(=O)N1 [Compound 242]	> 1000
CC(C)(C)OC(=O)NC(CC(N)=O)C(=O)NCCc1c(-c2ccc(F)cc2)[nH]c2c(F)cc(F)cc12 (centres unmarked) [Compound 304, tert-butyl N-[3-amino-1-[2-[5,7-difluoro-2-(4-fluorophenyl)-1H-indol-3-yl]ethylcarbamoyl]-3-oxo-propyl]carbamate]	250 to 1000
Cc1occc1C(=O)NCCc1c(-c2ccc(F)cc2)[nH]c2c(F)cc(F)cc12 [Compound 394]	> 1000
